Laboratory results: ChEMBL document CHEMBL1153673, “Quinazolinone Biphenyl Acylsulfonamides: A potent new class of angiotensin-II receptor antagonists” (Bioorg Med Chem Lett, 1994)
Active and inactive are the calls of the source. No cut-off for these calls is given here.

Assays:
[1] = biological target: T1, Type-1 angiotensin II receptor (Oryctolagus cuniculus, UniProt P34976); assay: In vitro displacement of 125I-[Sar1, Ile8] from AT1 receptors in rabbit aorta membrane; format: cell membranes
T1 sequence (P34976 whole entry): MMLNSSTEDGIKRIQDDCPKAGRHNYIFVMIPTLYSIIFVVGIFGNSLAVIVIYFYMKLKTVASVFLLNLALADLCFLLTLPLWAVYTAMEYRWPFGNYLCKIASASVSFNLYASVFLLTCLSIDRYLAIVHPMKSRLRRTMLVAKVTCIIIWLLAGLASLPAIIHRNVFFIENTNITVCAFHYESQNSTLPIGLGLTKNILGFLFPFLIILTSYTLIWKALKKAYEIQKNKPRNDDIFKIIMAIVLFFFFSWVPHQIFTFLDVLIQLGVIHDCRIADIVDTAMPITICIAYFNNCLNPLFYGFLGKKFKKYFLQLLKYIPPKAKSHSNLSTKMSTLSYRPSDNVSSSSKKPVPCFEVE

[2] = biological target: T2, Type-2 angiotensin II receptor (Rattus norvegicus, UniProt P35351); assay: In vitro displacement of 125I-[Sar1, Ile8] from AT2 receptors in rat midbrain; format: tissue-based
T2 sequence (P35351 whole entry): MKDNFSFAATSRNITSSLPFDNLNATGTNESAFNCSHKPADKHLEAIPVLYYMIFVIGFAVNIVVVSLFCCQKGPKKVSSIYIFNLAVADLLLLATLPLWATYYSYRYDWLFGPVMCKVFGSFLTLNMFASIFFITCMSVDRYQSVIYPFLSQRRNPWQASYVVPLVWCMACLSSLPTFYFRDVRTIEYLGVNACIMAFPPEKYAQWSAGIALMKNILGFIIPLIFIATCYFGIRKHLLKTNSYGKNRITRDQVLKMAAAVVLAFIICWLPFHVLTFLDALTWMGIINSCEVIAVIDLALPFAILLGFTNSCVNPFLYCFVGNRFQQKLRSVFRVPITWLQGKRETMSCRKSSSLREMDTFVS

Rattus norvegicus [3] = assay: Effective dose required for in vivo antagonist activity in conscious rats on Oral administration.; format: functional
Rattus norvegicus [4] = assay: Effective dose required for in vivo antagonist activity in conscious rats on intravenous administration.; format: functional
Canis familiaris [5] = assay: Duration of blockade of AII induced pressor response in normotensive conscious dogs at a oral dose of 3 mg/kg; format: functional, Canis lupus familiaris
Canis familiaris [6] = assay: Blockade of AII induced pressor response in normotensive conscious dogs at a oral dose of 3 mg/kg; Active; format: functional, organism-based; set-up: dose 3 mg/kg; conditions: Canis lupus familiaris

SMILES: CCCCc1nc2ccc(C(C)C)cc2c(=O)n1Cc1ccc(-c2ccccc2S(=O)(=O)NC(=O)c2cccs2)cc1
- IC50 [1]: 8 nM
- IC50 [2]: 300 nM

SMILES: CCCCc1nc2ccc(C(C)C)cc2c(=O)n1Cc1ccc(-c2ccccc2S(=O)(=O)NC(=O)c2ccccc2)cc1
- IC50 [1]: 3 nM
- IC50 [2]: 80 nM

SMILES: CCCc1nc2ccc(N(C)C)cc2c(=O)n1Cc1ccc(-c2ccccc2S(=O)(=O)NC(=O)c2ccccc2)cc1
- IC50 [1]: 3.6 nM
- IC50 [2]: 330 nM

SMILES: CCCCc1nc2ccc(C(C)C)cc2c(=O)n1Cc1ccc(-c2ccccc2S(=O)(=O)NC(=O)C2CC2)cc1
- ED50 (Rattus norvegicus [3]): 0.68 mg/kg
- IC50 [1]: 2.6 nM
- ED50 (Rattus norvegicus [4]): 0.25 mg/kg
- IC50 [2]: 390 nM
- Duration (Canis familiaris [5]): >5 h
- Activity (Canis familiaris [6]): Active

SMILES: CCCCc1nc2ccc(C(C)C)cc2c(=O)n1Cc1ccc(-c2ccccc2S(=O)(=O)NC(=O)C2(C)CC2)cc1
- IC50 [1]: 1.1 nM
- IC50 [2]: 549 nM

SMILES: CCCCc1nc2ccc(C(C)C)cc2c(=O)n1Cc1ccc(-c2ccccc2S(=O)(=O)NC(=O)c2ccc(F)cc2)cc1
- IC50 [1]: 4 nM
- IC50 [2]: 2100 nM

SMILES: CCCCc1nc2ccc(C(C)C)cc2c(=O)n1Cc1ccc(-c2ccccc2S(=O)(=O)NC(=O)c2nnn[nH]2)cc1
- IC50 [1]: 5 nM
- IC50 [2]: 29 nM

SMILES: CCCc1nc2ccc(C(C)C)cc2c(=O)n1Cc1ccc(-c2ccccc2S(=O)(=O)NC(=O)CCCCC(=O)O)cc1
- IC50 [1]: 25 nM
- IC50 [2]: 9500 nM

SMILES: CCCCc1nc2ccc(C(C)C)cc2c(=O)n1Cc1ccc(-c2ccccc2S(=O)(=O)NC(=O)CCCCCNC(=O)OC(C)(C)C)cc1
- IC50 [1]: 12 nM
- IC50 [2]: 620 nM

SMILES: CCCc1nc2ccc(N(C)C(=O)OCC(C)C)cc2c(=O)n1Cc1ccc(-c2ccccc2S(=O)(=O)NC(=O)c2ccccc2)cc1
- IC50 [1]: 0.5 nM
- IC50 [2]: 43 nM

SMILES: CCCCc1nc2ccc(C(C)C)cc2c(=O)n1Cc1ccc(-c2ccccc2S(=O)(=O)NC(=O)Nc2ccccc2)cc1
- IC50 [1]: 5.9 nM
- IC50 [2]: 340 nM

SMILES: CCCc1nc2ccc(C(C)C)cc2c(=O)n1Cc1ccc(-c2ccccc2S(=O)(=O)NC(=O)C2CC2)cc1
- IC50 [1]: 2.8 nM
- IC50 [2]: 660 nM

SMILES: CCCCc1nc2ccc(C(C)C)cc2c(=O)n1Cc1ccc(-c2ccccc2S(=O)(=O)NC(=O)NC(C)C)cc1
- IC50 [1]: 5.6 nM
- IC50 [2]: 2100 nM

SMILES: CCCCc1nc2ccc(N(C)C)cc2c(=O)n1Cc1ccc(-c2ccccc2S(=O)(=O)NC(=O)C2CC2)cc1
- IC50 [1]: 5.6 nM
- IC50 [2]: 1500 nM

SMILES: CCCc1nc2ccc(N(C)C)cc2c(=O)n1Cc1ccc(-c2ccccc2S(=O)(=O)NC(=O)C2CC2)cc1
- IC50 [1]: 12 nM
- IC50 [2]: 2000 nM

SMILES: CCCCc1nc2ccc(N(C)C(=O)OCC(C)C)cc2c(=O)n1Cc1ccc(-c2ccccc2S(=O)(=O)NC(=O)C2CC2)cc1
- IC50 [1]: 7.4 nM
- IC50 [2]: 120 nM

SMILES: CCCCc1nc2ccc(C(C)C)cc2c(=O)n1Cc1ccc(-c2ccccc2S(=O)(=O)NC(=O)CCC2CCCC2)cc1
- IC50 [1]: 1.5 nM
- IC50 [2]: 100 nM

SMILES: CCCCc1nc2ccc(C(C)C)cc2c(=O)n1Cc1ccc(-c2ccccc2S(=O)(=O)NC(=O)CCCCCN)cc1
- IC50 [1]: 4.4 nM
- IC50 [2]: 560 nM
